Bounds are passed on as bounds.

Drawing on US20260317324A1, “BIFUNCTIONAL COMPOUNDS FOR DEGRADING BRAF VIA UBIQUITIN PROTEOSOME PATHWAY” (Nurix Therapeutics, Inc., priority 2023, published 2026), this text covers DC50 and Dmax for 9 compounds.

Holding throughout (assay type): cell-based
In one experiment the target is T1, BRAF G469A (Homo sapiens, UniProt P15056, G469A).
T1 construct: Horizon Discovery (HCT-116 BRAF−/− cells); host or cells: HCT-116 BRAF−/− cells, clone 34, lentiviral transduction
In words: BRAF HiBiT degradation assay, C-terminal HiBiT-tagged BRAF G469A overexpressed in HCT-116 BRAF−/− cells (clone 34), Nano-Glo HiBiT Lytic assay. The gist of the method: (§1)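 Luminescence from the lytic HiBiT reagent, read after 10 min at room temperature, measured tagged BRAF remaining in lentivirally transduced HCT-116 BRAF−/− cells. Compounds were tested from 1 μM to 0.01 nM in half-log steps at 0.2% DMSO. DC50 values were fitted at 50% remaining.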
On the technique in general: With HiBiT, luminescence reflects the tagged protein that the partner subunit can reach.

The next experiment addresses T2, BRAF D594G (Homo sapiens, UniProt P15056, D594G).
T2 construct: Horizon Discovery (HCT-116 BRAF−/− cells); host or cells: HCT-116 BRAF−/− cells, clone 63, lentiviral transduction
In words: BRAF HiBiT degradation assay, C-terminal HiBiT-tagged BRAF D594G overexpressed in HCT-116 BRAF−/− cells (clone 63), Nano-Glo HiBiT Lytic assay. An outline of the steps:
as §1

Another experiment deals with T3, BRAF V600E (Homo sapiens, UniProt P15056, V600E).
T3 construct: endogenous C-terminal HiBiT fusion tag on BRAF V600E allele; endogenous in cells; host or cells: A375 clone 1F10 (CRISPR-Cas9 knock-in of the HiBiT tag; parental A375 from ATCC)
The experiment is described as follows: BRAF HiBiT degradation assay, C-terminal HiBiT-tagged BRAF V600E A375 cells (clone 1F10), Nano-Glo HiBiT Lytic assay. The following applies: for Dmax: A-375. An outline of the steps: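 Endogenous BRAF V600E-HiBiT A375 (1F10), 10,000 cells/well, 24 h preculture; cpd 11-pt, 1 μM–0.01 nM half-log, n=2, 0.2% DMSO; HiBiT lytic detection 10 min RT; DC50 = fitted conc at Y=50; Obs. Dmax vs DMSO.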

A further experiment addresses T4, BRAF G466V (Homo sapiens, UniProt P15056, G466V).
T4 construct: Horizon Discovery (HCT-116 BRAF−/− cells); host or cells: HCT-116 BRAF−/− cells, clone 8, lentiviral transduction
The experiment is described as follows: BRAF HiBiT degradation assay, C-terminal HiBiT-tagged BRAF G466V overexpressed in HCT-116 BRAF−/− cells (clone 8), Nano-Glo HiBiT Lytic assay. The gist of the method: as §1

Where [1] appears, read: BRAF G469A (Class 2), HCT-116 BRAF−/− cells, DC50 at 50% degradation.
Setting [2] is: BRAF G469A (Class 2), HCT-116 BRAF−/− cells, observed Dmax relative to DMSO control.
Where [3] appears, read: BRAF D594G (Class 3), HCT-116 BRAF−/− cells, DC50 at 50% degradation.
Where [4] appears, read: BRAF D594G (Class 3), HCT-116 BRAF−/− cells, observed Dmax relative to DMSO control.
Setting [5] is: A375 (BRAF V600E, Class 1), DC50 at 50% degradation.
[6] abbreviates: A375 (BRAF V600E, Class 1), observed Dmax, % protein degraded relative to DMSO control.
Setting [7] is: BRAF G466V (Class 3), HCT-116 BRAF−/− cells, DC50 at 50% degradation.
Setting [8] is: BRAF G466V (Class 3), HCT-116 BRAF−/− cells, observed Dmax relative to DMSO control.
Where [9] appears, read: Class 2, BRAF G469A, DC50 at 50%: fitted conc. at Y=50.
Where [10] appears, read: HCT-116, Class 2, BRAF G469A, percentage protein degraded at maximal compound effect relative to DMSO.
[11] abbreviates: BRAF D594G, DC50 at 50%: fitted conc. at Y=50.
The mark [12] stands for this setting: HCT-116, BRAF D594G, percentage protein degraded at maximal compound effect relative to DMSO.
Setting [13] is: A375 (BRAF V600E), DC50 at 50%: fitted conc. at Y=50.
Setting [14] is: A375 (BRAF V600E), percentage protein degraded at maximal compound effect relative to DMSO.
Where [15] appears, read: BRAF G466V, DC50 at 50%: fitted conc. at Y=50.
Where [16] appears, read: HCT-116, BRAF G466V, percentage protein degraded at maximal compound effect relative to DMSO.

T3 sequence (P15056 whole entry V600E, the tested form may be a part): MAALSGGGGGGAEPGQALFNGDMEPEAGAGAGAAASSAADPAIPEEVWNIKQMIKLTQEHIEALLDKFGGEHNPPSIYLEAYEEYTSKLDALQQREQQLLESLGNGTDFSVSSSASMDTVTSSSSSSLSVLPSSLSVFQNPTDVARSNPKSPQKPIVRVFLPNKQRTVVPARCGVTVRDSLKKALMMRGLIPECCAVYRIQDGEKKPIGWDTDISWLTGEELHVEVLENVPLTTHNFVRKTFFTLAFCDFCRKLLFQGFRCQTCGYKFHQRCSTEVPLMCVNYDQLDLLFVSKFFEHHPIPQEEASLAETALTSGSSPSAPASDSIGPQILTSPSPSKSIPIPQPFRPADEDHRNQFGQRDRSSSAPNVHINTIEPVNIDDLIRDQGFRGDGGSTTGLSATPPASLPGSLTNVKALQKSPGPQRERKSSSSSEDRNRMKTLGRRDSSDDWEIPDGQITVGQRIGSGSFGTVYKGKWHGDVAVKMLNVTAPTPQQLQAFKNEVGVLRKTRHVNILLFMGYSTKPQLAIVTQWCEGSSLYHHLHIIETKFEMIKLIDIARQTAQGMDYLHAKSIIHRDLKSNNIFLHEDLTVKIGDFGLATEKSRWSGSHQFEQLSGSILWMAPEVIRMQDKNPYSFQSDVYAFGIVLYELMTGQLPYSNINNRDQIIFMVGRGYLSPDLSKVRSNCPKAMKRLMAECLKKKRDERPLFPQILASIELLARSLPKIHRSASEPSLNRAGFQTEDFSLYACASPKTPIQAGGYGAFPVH
T4 sequence (P15056 whole entry G466V): as the sequence (P15056 whole entry V600E, the tested form may be a part) above, with G466V, E600V counted along it
T1 sequence (P15056 whole entry G469A): as the sequence (P15056 whole entry V600E, the tested form may be a part) above, with G469A, E600V counted along it
T2 sequence (P15056 whole entry D594G): as the sequence (P15056 whole entry V600E, the tested form may be a part) above, with D594G, E600V counted along it

A word on the DC50: it is the concentration at which degradation of the target reaches its halfway point. A high value points to degradation only at high concentration. One may read the Dmax as the largest share of the target that was removed. As to `O=C1CCN(c2ccc(N3CCC(CN4CCN(c5ccc(-n6cc(-c7cc(C(F)F)cc(NS(=O)(=O)N8CCCC8)c7F)c(-c7ccncc7)n6)c(F)c5)CC4)CC3)cc2)C(=O)N1` [Compound 356, N-[5-(difluoromethyl)-3-(1-{4-[4-({1-[4-(2,4-dioxo-1,3-diazinan-1-yl)phenyl]piperidin-4-yl}methyl)piperazin-1-yl]-2-fluorophenyl}-3-(pyridin-4-yl)-1H-pyrazol-4-yl)-2-fluorophenyl]pyrrolidine-1-sulfonamide], the DC50 on BRAF G469A (setting [1]) was above 500 nM; at BRAF D594G (setting [3]), above 500 nM; at BRAF V600E (setting [5]), 10 to 50 nM; on BRAF G466V (setting [7]) it was 10 to 50 nM. The Dmax on BRAF G469A (setting [2]) was below 30%; at BRAF D594G (setting [4]) it was 30 to 70%; at BRAF V600E (setting [6]), above 70%; on BRAF G466V (setting [8]), 30 to 70%.

On to `CCCS(=O)(=O)Nc1cccc(-c2cn(-c3ccc(N4CCN(CC5CCN(c6ccc([C@H]7CCC(=O)NC7=O)cc6)CC5)CC4)cc3)nc2-c2ccncc2)c1F` [Compound 16, N-{3-[1-(4-{4-[(1-{4-[(3R)-2,6-dioxopiperidin-3-yl]phenyl}piperidin-4-yl)methyl]piperazin-1-yl}phenyl)-3-(pyridin-4-yl)-1H-pyrazol-4-yl]-2-fluorophenyl}propane-1-sulfonamide], for which the DC50 at BRAF G469A (setting [9]) is 50 to 500 nM; on BRAF D594G (setting [11]) it was below 10 nM; at BRAF V600E (setting [13]), 10 to 50 nM; at BRAF G466V (setting [15]), 10 to 50 nM. The Dmax on BRAF G469A (setting [10]) is 30 to 70%; at BRAF D594G (setting [12]) it was 30 to 70%; at BRAF V600E (setting [14]) it was above 70%; at BRAF G466V (setting [16]), above 70%.

For the compound `CCCS(=O)(=O)Nc1cccc(-c2nc(C(C)(C)C)sc2-c2ccnc(Nc3cccc(C4CCN(CC[C@@H]5CCN(c6ccc(C7CCC(=O)NC7=O)cn6)C5)CC4)c3)n2)c1F` (mixture of isomers) [Compound 75, N-{3-[2-tert-butyl-5-(2-{[3-(1-{2-[(3R)-1-{5-[(3RS)-2,6-dioxopiperidin-3-yl]pyridin-2-yl}pyrrolidin-3-yl]ethyl}piperidin-4-yl)phenyl]amino}pyrimidin-4-yl)-1,3-thiazol-4-yl]-2-fluorophenyl}propane-1-sulfonamide], the DC50 on BRAF G469A (setting [9]) is above 500 nM; at BRAF D594G (setting [11]) it was above 500 nM; on BRAF V600E (setting [13]), 10 to 50 nM; at BRAF G466V (setting [15]) it was above 500 nM. Further, the maximal degradation (Dmax) is below 30% at BRAF G469A (setting [10]), below 30% on BRAF D594G (setting [12]), above 70% on BRAF V600E (setting [14]) and below 30% at BRAF G466V (setting [16]).

Regarding `CCCS(=O)(=O)Nc1cccc(-c2nc(C3CCN(C(=O)C4CCN(C(=O)CC5CCN(c6ccc(C7CCC(=O)NC7=O)cn6)CC5)CC4)CC3)sc2-c2ccnc(N)n2)c1F` (racemic) [Compound 203, Rac-N-{3-[5-(2-aminopyrimidin-4-yl)-2-(1-{1-[2-(1-{5-[(3R)-2,6-dioxopiperidin-3-yl]pyridin-2-yl}piperidin-4-yl)acetyl]piperidine-4-carbonyl}piperidin-4-yl)-1,3-thiazol-4-yl]-2-fluorophenyl}propane-1-sulfonamide], the DC50 at BRAF G469A (setting [9]) is above 500 nM; at BRAF D594G (setting [11]) it was below 10 nM; on BRAF V600E (setting [13]), below 10 nM; at BRAF G466V (setting [15]), below 10 nM. Further, the maximal degradation (Dmax) at BRAF G469A (setting [10]) was 30 to 70%; on BRAF D594G (setting [12]), 30 to 70%; on BRAF V600E (setting [14]) it was above 70%; on BRAF G466V (setting [16]), above 70%.

For the compound `O=C1CC[C@@H](c2ccc(N3CCC(CN4CCN(c5ccc(-n6cc(-c7cc(Cl)cc(NS(=O)(=O)N8CCCC8)c7F)c(-c7ccncc7)n6)cc5)CC4)CC3)cc2F)C(=O)N1` [Compound 384, N-{5-chloro-3-[1-(4-{4-[(1-{4-[(3S)-2,6-dioxopiperidin-3-yl]-3-fluorophenyl}piperidin-4-yl)methyl]piperazin-1-yl}phenyl)-3-(pyridin-4-yl)-1H-pyrazol-4-yl]-2-fluorophenyl}pyrrolidine-1-sulfonamide], the DC50 at BRAF G469A (setting [1]) was above 500 nM; on BRAF D594G (setting [3]), above 500 nM; at BRAF V600E (setting [5]), 10 to 50 nM; at BRAF G466V (setting [7]), 10 to 50 nM. In addition, the Dmax at BRAF G469A (setting [2]) is 30 to 70%; on BRAF D594G (setting [4]) it was 30 to 70%; on BRAF V600E (setting [6]), above 70%; at BRAF G466V (setting [8]), 30 to 70%.

For `CCCS(=O)(=O)Nc1cccc(-c2nc(C(C)(C)C)sc2-c2ccnc(Nc3ccc4c(c3)CCN(C(=O)CN3CCC(c5ccc(NC6CCC(=O)NC6=O)cc5)CC3)C4)n2)c1F` (racemic) [Compound 123, Rac-N-[3-(2-tert-butyl-5-{2-[(2-{2-[4-(4-{[(3R)-2,6-dioxopiperidin-3-yl]amino}phenyl)piperidin-1-yl]acetyl}-1,2,3,4-tetrahydroisoquinolin-6-yl)amino]pyrimidin-4-yl}-1,3-thiazol-4-yl)-2-fluorophenyl]propane-1-sulfonamide], the half-maximal degradation concentration (DC50) at BRAF G469A (setting [9]) was above 500 nM; on BRAF D594G (setting [11]) it was above 500 nM; at BRAF V600E (setting [13]) it was 10 to 50 nM; on BRAF G466V (setting [15]) it was above 500 nM. Moreover, the greatest degradation seen (Dmax) was below 30% at BRAF G469A (setting [10]), below 30% at BRAF D594G (setting [12]), 30 to 70% at BRAF V600E (setting [14]) and below 30% on BRAF G466V (setting [16]).

Turning to `CCN(C)S(=O)(=O)Nc1cc(Cl)cc(-c2cn(-c3ccc(N4CCN(CC5CCN(c6ccc(C7CCC(=O)NC7=O)cn6)CC5)CC4)cn3)nc2-c2ccncc2)c1F` (racemic) [Compound 312, Rac-(3R)-3-(6-{4-[(4-{6-[4-(5-chloro-3-{[ethyl(methyl)sulfamoyl]amino}-2-fluorophenyl)-3-(pyridin-4-yl)-1H-pyrazol-1-yl]pyridin-3-yl}piperazin-1-yl)methyl]piperidin-1-yl}pyridin-3-yl)piperidine-2,6-dione], the 50% degradation concentration (DC50) at BRAF G469A (setting [1]), on BRAF D594G (setting [3]), at BRAF V600E (setting [5]) and on BRAF G466V (setting [7]) was below 10 nM each time. Besides, the Dmax at BRAF G469A (setting [2]) was 30 to 70%; at BRAF D594G (setting [4]), above 70%; at BRAF V600E (setting [6]), above 70%; at BRAF G466V (setting [8]), above 70%.

Consider `CCN(C)S(=O)(=O)Nc1cccc(-c2nc(C)sc2-c2ccnc(Nc3ccc(N4CCN(CC5CCN(c6ccc([C@H]7CCC(=O)NC7=O)cc6)CC5)CC4)cn3)n2)c1F` [Compound 41, (3R)-3-{4-[4-({4-[6-({4-[4-(3-{[ethyl(methyl)sulfamoyl]amino}-2-fluorophenyl)-2-methyl-1,3-thiazol-5-yl]pyrimidin-2-yl}amino)pyridin-3-yl]piperazin-1-yl}methyl)piperidin-1-yl]phenyl}piperidine-2,6-dione], for which the half-maximal degradation concentration (DC50) at BRAF G469A (setting [9]) was 10 to 50 nM; at BRAF D594G (setting [11]) it was 10 to 50 nM; on BRAF V600E (setting [13]), below 10 nM; at BRAF G466V (setting [15]) it was 50 to 500 nM. Also, the Dmax was 30 to 70% at BRAF G469A (setting [10]), 30 to 70% on BRAF D594G (setting [12]), above 70% on BRAF V600E (setting [14]) and 30 to 70% on BRAF G466V (setting [16]).

With `O=C1CCC(c2ccc(N3CCC(CN4CCN(c5cnc(-n6cc(-c7cc(Cl)cc(NS(=O)(=O)N8CCCC8)c7F)c(-c7ccncc7)n6)nc5)CC4)CC3)nc2)C(=O)N1` (racemic) [Compound 359, Rac-N-{5-chloro-3-[1-(5-{4-[(1-{5-[(3R)-2,6-dioxopiperidin-3-yl]pyridin-2-yl}piperidin-4-yl)methyl]piperazin-1-yl}pyrimidin-2-yl)-3-(pyridin-4-yl)-1H-pyrazol-4-yl]-2-fluorophenyl}pyrrolidine-1-sulfonamide], the DC50 at BRAF G469A (setting [1]), at BRAF D594G (setting [3]), on BRAF V600E (setting [5]) and on BRAF G466V (setting [7]) was below 10 nM each time. In addition, the Dmax at BRAF G469A (setting [2]), at BRAF D594G (setting [4]), on BRAF V600E (setting [6]) and on BRAF G466V (setting [8]) was above 70% throughout.
